This is an account of results in patent US7820623B2 (priority 2006, dated 2010).

Assay [1] concerns thapsigargin-induced IL-2 production in human whole blood.
Assay [2] has as its system thapsigargin-induced IFN-g production in human whole blood. The class given is cell-based.
Setting [3] is: read-out: Analogue Activity (IC50) WB/IL-2.
Setting [4] is: read-out: Analogue Activity (IC50) WB/IFNg.

Like-named read-outs stand apart in the source and are kept apart here. Bridge positions count the residues as written; N and C are the ends. Square brackets hold non-standard residues; d marks the D form. Ends that are not written are not given here. Peptide text beside a SMILES is read from it. 1Nal = N[C@@H](Cc1cccc2ccccc12)C(=O)O

Regarding `CC[C@H](C)[C@@H]1NC(=O)[C@H](CCCCN)NC(=O)[C@@H](NC(=O)[C@H](CCCCN)NC(=O)[C@@H](NC(=O)[C@H](CCC(=O)O)NC(=O)[C@@H](NC(=O)[C@@H](NC(=O)[C@@H](NC(=O)CN)C(C)C)[C@@H](C)CC)[C@@H](C)CC)C(C)C)CSSC[C@@H]2NC(=O)[C@H](CCCCN)NC(=O)CNC(=O)[C@H](Cc3ccccc3)NC(=O)[C@H](CCCNC(=N)N)NC(=O)[C@H](CCSC)NC(=O)CNC(=O)[C@H](C)NC(=O)[C@H](CCCCN)NC(=O)[C@H](CCCCN)NC(=O)[C@@H]3CSSC[C@@H](C(=O)N[C@H](C(=O)N4CCC[C@H]4C(=O)N[C@@H](CCCCN)C(=O)O)[C@@H](C)O)NC(=O)[C@H](Cc4c[nH]cn4)NC(=O)[C@H](CSSC[C@H](NC(=O)[C@H](CCC(N)=O)NC(=O)[C@H](CCCNC(=N)N)NC(=O)[C@H](CO)NC1=O)C(=O)N[C@@H](CC(C)C)C(=O)N[C@@H](CCC(=O)O)C(=O)N1CCC[C@H]1C(=O)N3)NC(=O)[C@H](CCCCN)NC(=O)CNC(=O)[C@H](CC(N)=O)NC(=O)[C@H](CCSC)NC2=O` [N5E] (H-GVIIEVKCKISRQCLEPCKKAGMRFGKCMNGKCHCTPK-OH; disulfide 8-28, 14-33, 18-35), the figures for the IC50 in assay [1] (setting [3]) and in assay [2] (setting [4]) were 0.1 nM and 0.065 nM, respectively. Taken in the same sequence, the figures for `CC[C@H](C)[C@@H]1NC(=O)[C@H](CCCCN)NC(=O)[C@@H](NC(=O)[C@H](CCCCN)NC(=O)[C@@H](NC(=O)[C@H](CC(N)=O)NC(=O)[C@@H](NC(=O)[C@@H](NC(=O)[C@@H](NC(=O)CN)C(C)C)[C@@H](C)CC)[C@@H](C)CC)C(C)C)CSSC[C@@H]2NC(=O)[C@H](CCCCN)NC(=O)CNC(=O)[C@H](Cc3ccccc3)NC(=O)[C@H](CCCNC(=N)N)NC(=O)[C@H](CCSC)NC(=O)CNC(=O)[C@H](CCCNC(=N)N)NC(=O)[C@H](CCCCN)NC(=O)[C@H](CCCCN)NC(=O)[C@@H]3CSSC[C@@H](C(=O)N[C@H](C(=O)N4CCC[C@H]4C(=O)N[C@@H](CCCCN)C(=O)O)[C@@H](C)O)NC(=O)[C@H](Cc4c[nH]cn4)NC(=O)[C@H](CSSC[C@H](NC(=O)[C@H](CCC(N)=O)NC(=O)[C@H](CCCNC(=N)N)NC(=O)[C@H](CO)NC1=O)C(=O)N[C@@H](CC(C)C)C(=O)N[C@@H](CCC(=O)O)C(=O)N1CCC[C@H]1C(=O)N3)NC(=O)[C@H](CCCCN)NC(=O)CNC(=O)[C@H](CC(N)=O)NC(=O)[C@H](CCSC)NC2=O` [A21R] (H-GVIINVKCKISRQCLEPCKKRGMRFGKCMNGKCHCTPK-OH; disulfide 8-28, 14-33, 18-35) were 0.09 nM and 0.149 nM. The corresponding values for `CC[C@H](C)[C@@H]1NC(=O)[C@H](CCCCN)NC(=O)[C@@H](NC(=O)[C@H](CCCCN)NC(=O)[C@@H](NC(=O)[C@H](CC(N)=O)NC(=O)[C@@H](NC(=O)[C@@H](NC(=O)[C@@H](NC(=O)CN)C(C)C)[C@@H](C)CC)[C@@H](C)CC)C(C)C)CSSC[C@@H]2NC(=O)[C@H](CCCCN)NC(=O)CNC(=O)[C@H](Cc3ccccc3)NC(=O)[C@H](CCCNC(=N)N)NC(=O)[C@H](CCSC)NC(=O)CNC(=O)[C@H](C)NC(=O)[C@H](CCCCN)NC(=O)[C@H](CCCCN)NC(=O)[C@@H]3CSSC[C@@H](C(=O)N[C@H](C(=O)N4CCC[C@H]4C(=O)N[C@@H](CCCCN)C(=O)O)[C@@H](C)O)NC(=O)[C@H](Cc4c[nH]cn4)NC(=O)[C@H](CSSC[C@H](NC(=O)[C@H](CCC(N)=O)NC(=O)[C@H](CCCNC(=N)N)NC(=O)[C@H](CO)NC1=O)C(=O)N[C@@H](CC(C)C)C(=O)N[C@@H](CCC(=O)O)C(=O)N[C@@H](CCCNC(=N)N)C(=O)N3)NC(=O)[C@H](CCCCN)NC(=O)CNC(=O)[C@H](CC(N)=O)NC(=O)[C@H](CCSC)NC2=O` [P17R] (H-GVIINVKCKISRQCLERCKKAGMRFGKCMNGKCHCTPK-OH; disulfide 8-28, 14-33, 18-35) are 0.202 nM and 0.355 nM. On to “GVAINVKCKISRQCLEPCKKAGMRFGKCMNGKCHCTPK [Ala-3 (SEQ ID No: 1402)]”, for which the IC50 in assay [1] (read-out: Average IC50 IL-2) was 0.0883 nM; in assay [2] (read-out: Average IC50 IFNg), 0.0992 nM. Consider `CC[C@H](C)[C@@H]1NC(=O)[C@H](CCCCN)NC(=O)[C@@H](NC(=O)[C@H](CCCCN)NC(=O)[C@@H](NC(=O)[C@H](CC(N)=O)NC(=O)[C@@H](NC(=O)[C@@H](NC(=O)[C@@H](NC(=O)CN)C(C)C)[C@@H](C)CC)[C@@H](C)CC)C(C)C)CSSC[C@@H]2NC(=O)[C@H](CCCCN)NC(=O)CNC(=O)[C@H](Cc3ccccc3)NC(=O)[C@H](CCCNC(=N)N)NC(=O)[C@H](CCSC)NC(=O)CNC(=O)[C@H](C)NC(=O)[C@H](CCCCN)NC(=O)[C@H](CCCCN)NC(=O)[C@@H]3CSSC[C@@H](C(=O)N[C@H](C(=O)N4CCC[C@H]4C(=O)N[C@@H](CCCCN)C(=O)O)[C@@H](C)O)NC(=O)[C@H](Cc4c[nH]cn4)NC(=O)[C@H](CSSC[C@H](NC(=O)[C@H](CCC(N)=O)NC(=O)[C@H](CCCNC(=N)N)NC(=O)[C@H](CO)NC1=O)C(=O)N[C@@H](CCCNC(=N)N)C(=O)N[C@@H](CCC(=O)O)C(=O)N1CCC[C@H]1C(=O)N3)NC(=O)[C@H](CCCCN)NC(=O)CNC(=O)[C@H](CC(N)=O)NC(=O)[C@H](CCSC)NC2=O` [L15R] (H-GVIINVKCKISRQCREPCKKAGMRFGKCMNGKCHCTPK-OH; disulfide 8-28, 14-33, 18-35), for which the IC50 in assay [1] (setting [3]) is 0.093 nM; in assay [2] (setting [4]), 0.116 nM.

On to `CC[C@H](C)[C@@H]1NC(=O)[C@H](CCCCN)NC(=O)[C@@H](NC(=O)[C@H](CCC(=O)O)NC(=O)[C@@H](NC(=O)[C@H](CC(N)=O)NC(=O)[C@@H](NC(=O)[C@@H](NC(=O)[C@@H](NC(=O)CN)C(C)C)[C@@H](C)CC)[C@@H](C)CC)C(C)C)CSSC[C@@H]2NC(=O)[C@H](CCCCN)NC(=O)CNC(=O)[C@H](Cc3ccccc3)NC(=O)[C@H](CCCNC(=N)N)NC(=O)[C@H](CCSC)NC(=O)CNC(=O)[C@H](C)NC(=O)[C@H](CCCCN)NC(=O)[C@H](CCCCN)NC(=O)[C@@H]3CSSC[C@@H](C(=O)N[C@H](C(=O)N4CCC[C@H]4C(=O)N[C@@H](CCCCN)C(=O)O)[C@@H](C)O)NC(=O)[C@H](Cc4c[nH]cn4)NC(=O)[C@H](CSSC[C@H](NC(=O)[C@H](CCC(N)=O)NC(=O)[C@H](CCCNC(=N)N)NC(=O)[C@H](CO)NC1=O)C(=O)N[C@@H](CC(C)C)C(=O)N[C@@H](CCC(=O)O)C(=O)N1CCC[C@H]1C(=O)N3)NC(=O)[C@H](CCCCN)NC(=O)CNC(=O)[C@H](CC(N)=O)NC(=O)[C@H](CCSC)NC2=O` [K7E] (H-GVIINVECKISRQCLEPCKKAGMRFGKCMNGKCHCTPK-OH; disulfide 8-28, 14-33, 18-35), for which the results for the IC50 in assay [1] (setting [3]) and in assay [2] (setting [4]) were 0.058 nM and 0.068 nM, respectively.

Regarding “SEQ ID No: 4989: OSK1 analog without beta strand 1 (labeled des 1-7), Table 42 (CKISRQCLKPCKDAGMRFGKCMNGKCHC-NH2; ends and bridges not checked)”, the “blockade of the whole blood cytokine response, IL-2 and IFNg” value (“blockade” for short) in assay [1] is given as “retain activity in blocking inflammation”.

Turning to `CC[C@H](C)[C@@H]1NC(=O)[C@H](CCCCN)NC(=O)[C@@H](NC(=O)[C@H](CCCCN)NC(=O)[C@@H](NC(=O)[C@H](CC(N)=O)NC(=O)[C@@H](NC(=O)[C@@H](NC(=O)[C@@H](NC(=O)CN)C(C)C)[C@@H](C)CC)[C@@H](C)CC)C(C)C)CSSC[C@@H]2NC(=O)[C@H](CCCCN)NC(=O)CNC(=O)[C@H](Cc3ccccc3)NC(=O)[C@H](CCCNC(=N)N)NC(=O)[C@H](CCSC)NC(=O)CNC(=O)[C@H](C)NC(=O)[C@H](CCCCN)NC(=O)[C@H](CCCCN)NC(=O)[C@@H]3CSSC[C@@H](C(=O)N[C@H](C(=O)N4CCC[C@H]4C(=O)N[C@@H](CCCCN)C(=O)O)[C@@H](C)O)NC(=O)[C@H](Cc4c[nH]cn4)NC(=O)[C@H](CSSC[C@H](NC(=O)[C@H](Cc4cccc5ccccc45)NC(=O)[C@H](CCCNC(=N)N)NC(=O)[C@H](CO)NC1=O)C(=O)N[C@@H](CC(C)C)C(=O)N[C@@H](CCC(=O)O)C(=O)N1CCC[C@H]1C(=O)N3)NC(=O)[C@H](CCCCN)NC(=O)CNC(=O)[C@H](CC(N)=O)NC(=O)[C@H](CCSC)NC2=O` [Q13Nal] (H-GVIINVKCKISR[1Nal]CLEPCKKAGMRFGKCMNGKCHCTPK-OH; disulfide 8-28, 14-33, 18-35), the IC50 in assay [1] (setting [3]) turned out to be 0.14 nM.

B1: FcLoop-L2-OsK1-L2: OsK1 inserted into the human IgG1 Fc-loop domain with 2-Gly linkers on either side (protein)
chain: MDKTHTCPPCPAPELLGGPSVFLFPPKPKDTLMISRTPEVTCVVVDVSHEDPEVKFNWYVDGVEVHNAKTKPREEQYNSTYRVVSVLTVLHQDWLNGKEYKCKVSNKALPAPIEKTISKAKGQPREPQVYTLPPSRDELGGGVIINVKCKISRQCLEPCKKAGMRFGKCMNGKCHCTPKGGTKNQVSLTCLVKGFYPSDIAVEWESNGQPENNYKTTPPVLDSDGSFFLYSKLTVDKSRWQQGNVFSCSVMHEALHNHYTQKSLSLSPGK
modifications: Definition of Artificial Sequence: Synthetic protein
On to B1, for which the “blockade” value in assay [1] is listed as “potent blockade”.

B2: FcLoop-L2-ShK-L2: ShK inserted into the human IgG1 Fc-loop domain with 2-Gly linkers (protein)
chain: MDKTHTCPPCPAPELLGGPSVFLFPPKPKDTLMISRTPEVTCVVVDVSHEDPEVKFNWYVDGVEVHNAKTKPREEQYNSTYRVVSVLTVLHQDWLNGKEYKCKVSNKALPAPIEKTISKAKGQPREPQVYTLPPSRDELGGRSCIDTIPKSRCTAFQCKHSMKYRLSFCRKTCGTCGGTKNQVSLTCLVKGFYPSDIAVEWESNGQPENNYKTTPPVLDSDGSFFLYSKLTVDKSRWQQGNVFSCSVMHEALHNHYTQKSLSLSPGK
modifications: Definition of Artificial Sequence: Synthetic protein
For the molecule B2, the “blockade” value in assay [1] was “potent blockade”.
